Values joined by “and” are separate entries in the source; they are usually repeats but may differ in a detail not shown here. Equal entries are not always repeated.
Legend:
[1] = system: P. falciparum; assay: Population PK/PD modelling (Emax model) and dose simulation; format: in vivo, Plasmodium falciparum
Procedure: (§1) Data preparation, exploration, model definition, model evaluation and simulations were performed in R (version 3.5.1) and the R package IQRtools (version 1.0.6; IntiQuan, Basel, Switzerland) within the software package MonolixSuite 2018R2 (Lixoft, Antony, France). The MIC and the minimum parasiticidal concentration that achieves 90% of maximum effect (MPC90) were derived from the PK/PD model. Simulations were performed to predict the minimum effective single dose, defined as the dose that clears 10^9 parasites/ml. Further detail on PK/PD modeling methods is presented in Text S1.
(§2) Pharmacokinetic/Pharmacodynamic modelling methods and results […]
(§3) The objectives of the PK/PD modelling anal ysis w ere:
(§4) 1. To develop a population PK model of cipar gamin in healthy subjects inoculated with blood stage P. falciparum .
(§5) 2. To char acterize the PK/PD relationship between cipargamin pharmacokinetics and parasite cl ear ance in h eal th subjects inoculated with blood stage P. falcipar um .
(§6) 3. To determine the minimum inhibitory concent ration (M IC ) of cipargamin .
(§7) 4. To establish the minimum effective cipar gamin single dose required to kill 10 9
(§8) Data preparation, exploration, model definition, model evaluation and simulations were performed in R (version 3.5.1) and the R package IQRtools (version 1.0.6, IntiQuan GmbH, Basel, Switzerland) withi n the software package MonolixSuite2018R2 (Li xoft, Anton y, Fran ce) which implemen ts stochastic approx imation ex pectation-maximisation (SAEM) algorithm for parameter estimation.
(§9) One-, two- and three-compartment with different absorption and elimination models were tested. Zero- and first-order absorption models wi th or without lag time were examined. Data below the lower limit of quantitation ( LLO Q; 0.001 µg/ m L) were treated using a left - censoring method. Between subject vari abilit y ( BSV) of the PK parameters was assumed to be normally distributed on log -scale. The random effects across the par ameters within an individual were modelled according to a multivari ate normal distribution (MVN). BS V w as […]
(§10) supported by the data.The residual unexplained variabilit y (RUV) was tested using a proportional or combined error models.
(§11) Population PK/PD modelling
(§12) A sequential PK/PD modelling approach was used in which the empirical Bayes estimates of individual PK parameters were us ed as r egression parameters for the PK/P D model. The observations below the limit of detection (LOD; 10 parasites/mL) were mo del led using a l eft-censoring method. In this anal ysis, the changes in parasitemia over time in the presen ce of antimalarial dru g are ass umed to be a result of the differen ce b etween p ar asite growth rate (k grow ) and the r ate at wh ich parasites are killed b y the drug (k k ill ) with a baseline parasitemia (P L base ) at time t 0 (time of inoculation). Diff erent structural PK/PD models were tested to assess the relationship of cipar gamin plasma concentration on the parasite ki lling rate. The E max model assumed a direct effect of cipargamin plasma concent rations on parasite killing.
The turnover model assumed an indirect effect of cipargamin plasma concentrations on parasite killing due to lag in the PD processes (i.e. the kinetics of dru g-receptor binding). The effect compartment mod el assumed an indirect ef fect of cipar gamin plasm a concentration on parasite killing due to biophase equilibration. This model can be interpreted as the dela y for the drug to reach the site of action in which the cip ar gamin concentrations i n the eff ect […]
compartment drives the d rug eff ect. The p arasite clear an ce model assumed that the observed parasites were a mixture of living and dead parasites and that the cipar gami n plasma […]
PD parameters wer e mod elled assuming a log-normal distribution with exception of ln-transformed b aseline par asite values (parasit emia at time of inoculation) w here a no rmal distribution was assumed. […]
were fixed to 0.2. […]

[2] = system: rodent malaria model; parameters: method as in PMID 20813948; conditions: cited from earlier work
[3] = parameters: method as in PMID 25114127; conditions: cited from earlier work
[4] = Population PK model (two-compartment); format: in vivo, human
Procedure: as §1, §2, §3, §4, §5, §6, §7, §8, §9, §10, §11, §12
The turnover model assumed an indirect effect of cipargamin plasma concentrations on parasite killing due to lag in the PD processes (i.e. the kinetics of dru g-receptor binding). The effect compartment mod el assumed an indirect ef fect of cipar gamin plasm a concentration on parasite killing due to biophase equilibration. […]

[5] = plasma concentration, PK/PD model, 10 mg cohort

C[C@H]1Cc2c([nH]c3cc(Cl)c(F)cc23)[C@@]2(N1)C(=O)Nc1ccc(Cl)cc12 [cipargamin]
PRR48 actual, median (95% CI) ([1]; PK/PD model, 10 mg): 2.59 (1.89 – 3.32) log10 unit
Time above MIC, median (95% CI) ([1]; PK/PD model, 10 mg): 1.96 (1.59 –2.44) days
Time above MPC90, median (95% CI) ([1]; PK/PD model, 10 mg): 0.89 (0.63–1.26) days
Emax, maximum parasite killing rate ([1]; final PK/PD Emax model, Hill coefficient fixed to 5): 0.23 h⁻¹
MIC, median (95% CI) [1, 5]: 11.6 (9.9 – 13.3) ng/ml and 11.6 ng/ml
MPC90, minimum parasiticidal concentration that achieves 90% of maximum effect, median (95% CI) [1, 5]: 23.5 (19.9 – 27.4) ng/ml and 23.5 ng/ml
minimum effective single dose predicted to clear 10^9 parasites/ml ([1]; simulation in patients with malaria, 500 patients per dose, up to day 28): 95 mg
cure in rodent malaria model [2]: single-dose cure was demonstrated
AUC0–∞ ([3]; 10 mg, healthy subjects, first-in-human study): 1860 ng·h/mL
LFT abnormalities ([3]; 72 healthy subjects, single doses up to 300 mg or up to 150 mg daily for 3 days): only one subject displayed mild LFT abnormalities
tolerability in humans ([3]; single dose up to 300 mg or up to 150 mg daily for 3 days): tolerated
CL/F, estimate (RSE %) ([4]; final population PK model): 5.5 (10.7) L/h
Vc/F, estimate (RSE %) ([4]; final population PK model): 64.4 (8.9) L
Q1/F, estimate (RSE %) ([4]; human, in vivo): 12.9 (9.0) L/h
Vp1/F, estimate (RSE %) ([4]; human, in vivo): 107 (4.8) L
ka, estimate (RSE %) ([4]; human, in vivo): 0.919 (4.6) /h

Source: PMC7849011, “Defining the Antimalarial Activity of Cipargamin in Healthy Volunteers Experimentally Infected with Blood-Stage Plasmodium falciparum” (Antimicrobial Agents and Chemotherapy, 2021)
